The values below come from patent US20230404971A1, “Combination Comprising Abemaciclib and 6-(2,4-Dichlorophenyl)-5-[4-[(3S)-1-(3-Fluoropropyl)Pyrrolidin-3-yl]Oxyphenyl]-8,9-Dihydro-7H-Benzo[7]Annulene-2-Carboxylic Acid” (Sanofi, priority 2020, published 2023).

The structures appear in SMILES notation.

A short description of series [1]: Tolerability (body weight, deaths) in the MCF7-Y537S xenograft study. The class given is in vivo. How it is done: The animals required for experiment (plus extra) were pooled and implanted with MCF7-Y537S tumor fragment tissues. […] Animal body weight was assessed daily.
The dosages are expressed in mg/kg and based on daily body weight per animal. Vehicle treated animals were used as controls. Mice were checked daily and adverse clinical reactions noted. Individual mice were weighed daily until the end of the experiment. Mice would be euthanized when morbid or weight loss ≥20% was observed. Tumors were measured with a caliper twice weekly until final sacrifice. When a tumor size reached approximately 2000 mm^3 or when there are animal health issues (40% area of a tumor ulcerated), animals would be euthanized and date of death recorded. Solid tumor volumes were estimated from two-dimensional tumor measurements and calculated according to the following equation: […]
Animal body weight included the tumor weight.

For series [2], the system named is MCF7-Y537S human breast cancer cell line xenograft. In words: Anti-tumor efficacy against subcutaneous MCF7-Y537S human breast cancer cell line xenograft in female nude mice. It counts as in vivo, female BALB/c nude mice. The conditions noted are these: for Tumor volume changes from baseline, Median: n = 7. Details: key to Biological Interpretation: Active: ΔT/ΔC≤40% is considered as therapeutically active; Very active: ΔT/ΔC<0% is considered as tumor regression (very active); Inactive: ΔT/ΔC>40% is considered as therapeutically inactive. How it is done: In the present study, the anti-tumor efficacy of 6-(2,4-dichlorophenyl)-5-[4-[(3S)-1-(3-fluoropropyl)pyrrolidin-3-yl]oxyphenyl]-8,9-dihydro-7H-benzo[7]annulene-2-carboxylic acid (“compound (1)”), combined with abemaciclib, was investigated after 22 days treatment against a subcutaneous MCF7-Y537S human breast cancer cell line xenograft in female nude mice.
The treated groups included compound (1) at 20 mg/kg alone, abemaciclib at 70 mg/kg alone, and the combination of compound (1) and abemaciclib at the same dose and regime,
Compound (1) was orally dosed twice a day (BID) and abemaciclib was orally dosed once a day (QD) for 22 days. Anti-tumor efficacy was evaluated by tumor volume measurement.
Female BALB/c nude mice were obtained from Shanghai Sino-British SIPPR/BK Laboratory Animal Co., LTD (Shanghai, CHINA). Animals were allowed to acclimate for at least four days before the study enrollment. Mice were 6 to 8 weeks old and weighed between 18 and 24 grams at the beginning of the treatments. These animals were housed under conditions outlined in the guidelines approved by the Institutional Animal Care and Use Committee (IACUC) of WuXi AppTec following the guidance of the Association for Assessment and Accreditation of Laboratory Animal Care (AAALAC).
Parental MCF7 cells were obtained from the American Type Culture Collection (ATCC® HTB-22™). MCF7-Y537S (ESR1) cell line was MCF7 cells expressing the ER.Y537S variant that was generated by Sanofi Biology Discovery Group. Y537S mutation was introduced in ESR1 construct (GenBank NM_000125.3) by site directed mutagenesis (Toy W. et al., Cancer Discovery, 2017, 7, 277-287). The construct was transfected in MCF7 cells which were selected for their growth in absence of estradiol. MCF-Y537S is an ESR1 mutation that confers estrogen-independent activity to ERα (Estrogen Receptor alpha) and contributes to endocrine resistant disease (Robinson D. R. et al., Nat Genet., 2013, 45 (12), 1446-1451). The cells were grown in Eagle's Minimum Essential Medium (EMEM) supplemented with 10% fetal bovine serum (FBS), human Insulin, in 5% CO2 at 37° C. The cells were harvested in 0.25% Trypsin EDTA and washed by Phosphate Buffered Saline (PBS) and re-suspended in PBS with 75% Matrigel. The cells (20×10^6 cells/per mouse) were subcutaneously (SC) implanted into the right flank of female nude mice.
When the MCF7-Y537S tumors were established, the tumors were reserved as tumor stocks for fragment implantation. The tumors were serially propagated through fragment tissue transplantation subcutaneously. The fragment tumor tissues were subcutaneously implanted into the right flank of female nude mice. 28 mice were assigned in this experiment.
Abemaciclib (Manufacturer: Sanofi; Lot number: VAC.DLE20.006.1) was formulated in 40% SBE-β-CD in HCl 0.1N pH 3.0. Compound (1) was prepared in 5% Solutol HS15 (purchased from Sigma) at pH 3.0.
Dose volume for compound (1) and abemaciclib for oral administration: 10 ml/kg by oral gavage.
Doses: compound (1) at 20 mg/kg and abemaciclib at 70 mg/kg in the above volume.
The animals required for experiment (plus extra) were pooled and implanted with MCF7-Y537S tumor fragment tissues. On day 0 (20 days post implantation), the mice were pooled and randomly distributed to the treatment and control groups (7 mice per group), where median tumor volumes for each group was 173 mm^3. Treatments of compound (1) and abemaciclib were initiated on day 0. Compound (1) was orally administered at 20 mg/kg BID (8 hours apart) and abemaciclib was orally administered at 70 mg/kg QD, for 22 days. Animal body weight was assessed daily.
The dosages are expressed in mg/kg and based on daily body weight per animal. Vehicle treated animals were used as controls. Mice were checked daily and adverse clinical reactions noted. Individual mice were weighed daily until the end of the experiment. Mice would be euthanized when morbid or weight loss ≥20% was observed. […]

The mark [3] stands for this setting: day 22, PO for 22 days, compound (1) 20 mg/kg BID, abemaciclib 70 mg/kg QD, alone or combined.

As for `CCN1CCN(Cc2ccc(Nc3ncc(F)c(-c4cc(F)c5nc(C)n(C(C)C)c5c4)n3)nc2)CC1` [Abemaciclib, N-{5-[(4-ethylpiperazin-1-yl)methyl]pyridin-2-yl}-5-fluoro-4-[4-fluoro-2-methyl-1-(propan-2-yl)-1H-benzimidazol-6-yl]pyrimidin-2-amine], in series [1] (compound (1) 20 mg/kg BID, abemaciclib 70 mg/kg QD, alone or combined, 22 days, PO), the Body weight loss entry is “no significant body weight loss”. Moreover, the “Unscheduled death (Day of death)” value in series [1] (deaths / animals in group, 22 days treatment) was 0/7. Besides, the “Tumor volume changes from baseline, Median” value amounted to 9.0 mm^3 in series [2] (Day 4, compound (1) 20 mg/kg BID, abemaciclib 70 mg/kg QD, alone or combined); 40.0 mm^3 in series [2] (Day 8, compound (1) 20 mg/kg BID, abemaciclib 70 mg/kg QD, alone or combined); 83.0 mm^3 in series [2] (Day 11, compound (1) 20 mg/kg BID, abemaciclib 70 mg/kg QD, alone or combined); 119.0 mm^3 in series [2] (Day 15, compound (1) 20 mg/kg BID, abemaciclib 70 mg/kg QD, alone or combined); 150.0 mm^3 in series [2] (Day 18, compound (1) 20 mg/kg BID, abemaciclib 70 mg/kg QD, alone or combined); 199.0 mm^3 in series [2] (Day 22, compound (1) 20 mg/kg BID, abemaciclib 70 mg/kg QD, alone or combined). In addition, the “Regressions Complete” value in series [2] (animals with complete regression / animals in group, 22 days treatment) is reported as 0/7. The “Regressions Partial” value in series [2] (animals with partial regression / animals in group, 22 days treatment) is recorded as 0/7. For the same compound, the “Biological Interpretation” value in series [2] (based on ΔT/ΔC at day 22) is listed as “Active”. The “Median % of regressions on day 22” value in series [2] (setting [3]) amounted to 0%. The “ΔT/ΔC in % at day 22” value in series [2] (setting [3]) amounted to 19%. Further, in series [2] (day 22, versus control), the “Anti-tumor effect on tumor growth (in words)” value is “statistically significant anti-tumor efficacy”.
